Test results reported in patent US20260242478A1, “ANTIBODIES FOR TARGETING PSMA AND CD28 AND USES THEREOF” (Janux Therapeutics, Inc., priority 2023, published 2026).
Values belong to the sequence of their own block, whether it stands above or below them.

Experiments:
[1] = tested on: PSMA Fab (SEQ ID NOs: 19, 20); assay: Kinetic binding of peptides to PSMA Fab, BLI; settings: Table 39, 1:1 binding model
Procedure: Kinetic binding of the peptides of Table 9 to PSMA Fab (SEQ ID NOs: 19, 20) was evaluated using biolayer interferometry (BLI). Briefly, biotinylated peptides were loaded onto a streptavidin coated Octet® V SAX biosensor, quenched in biocytin, and baselined in buffer. […] After a short association period, sensors were transferred into buffer and the dissociation of bound Ab-1 was measured. Association and dissociation signals were recorded in real time and analyzed using a 1:1 binding model within the instrument software. Analysis using a 1:1 binding model enabled the calculation of the on and off rate constant as well as affinity, Kn.

[2] = molecular target: anti-CD28 scFv (disulfide) (SEQ ID NO: 10) binding to CD28 antigen; assay: Inhibition of anti-CD28 scFv (disulfide) binding to CD28 by peptides, competition ELISA; settings: anti-CD28 scFv (disulfide) fixed at 0.3 nM, 0-100 μM peptides
[3] = tested on: anti-CD28 Fab (SEQ ID NOs: 696, 697); assay: anti-CD28 Fab binding to peptides, ELISA; settings: for EC50: anti-CD28 Fab
[4] = molecular target: anti-CD28 scFv (disulfide) (SEQ ID NO: 10); assay: anti-CD28 scFv (disulfide) binding to peptides, ELISA; settings: Table 27
Procedure: Peptides were evaluated for their ability to bind to ant-CD28 Fab (SEQ ID NOs: 696.697) or anti-CD28 scFv (disulfide) (SEQ ID NO: 10) in a standard ELISA format as described above.

[5] = molecular target: PSMA Fab (SEQ ID NOs: 19, 20); assay: PSMA Fab binding to peptides, ELISA; settings: PSMA Fab binding to biotinylated peptide, ELISA
Procedure: Peptides of Table 9 were evaluated for their ability to bind to PSMA Fab in a standard enzyme linked immunosorbent assay (ELISA) format. […] PSMA Fab diluted in buffer was then added to the peptide captured plates. Bound antibody was detected using a standard horse radish peroxidase conjugate secondary antibody.

[6] = molecular target: PSMA Fab (SEQ ID NOs: 19, 20) binding to the PSMA antigen; assay: Inhibition of PSMA Fab binding to PSMA by peptides, competition ELISA (incl. alanine scanning); settings: Table 38; PSMA Fab fixed at 0.3 nM, peptide 0-100 μM
Procedure: PSMA Fab fixed at 0.3 nanomolar (nM) concentration was pre-incubated with 0-100 micromolar (μM) titrated peptides. After a short pre-incubation period, the mixture of titrated peptide with fixed PSMA Fab were added to the PSMA antigen coated plates. After a short incubation on the plates, bound PSMA Fab was detected with a standard horse radish peroxidase conjugated secondary antibody.
The tables also designate each alanine mutation as tolerant (T), somewhat tolerant (ST), or intolerant (IT) based on changes in binding inhibition ability relative to the non-mutated peptide. Cys-5 and Cys-11 of peptide-179 and peptide-180 were not mutated.

[7] = tested on: anti-CD28 Fab (SEQ ID NOs: 696, 697); assay: Kinetic binding of peptides to anti-CD28 Fab, BLI; settings: for Off rate t½: Table 26; for kdis / kon: Table 30, BLI

anti-CD28 scFv (disulfide) (SEQ ID NO: 10), sequence (as listed by the source): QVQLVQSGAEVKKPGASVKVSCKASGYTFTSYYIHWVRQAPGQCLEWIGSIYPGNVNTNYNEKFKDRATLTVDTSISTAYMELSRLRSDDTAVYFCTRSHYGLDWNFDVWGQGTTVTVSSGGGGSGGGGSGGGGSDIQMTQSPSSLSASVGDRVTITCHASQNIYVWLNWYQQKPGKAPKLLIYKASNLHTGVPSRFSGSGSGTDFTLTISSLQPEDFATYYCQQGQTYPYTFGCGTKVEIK
anti-CD28 scFv (disulfide) (SEQ ID NO: 10) binding to CD28 antigen, sequence (P10747 19-220 partner): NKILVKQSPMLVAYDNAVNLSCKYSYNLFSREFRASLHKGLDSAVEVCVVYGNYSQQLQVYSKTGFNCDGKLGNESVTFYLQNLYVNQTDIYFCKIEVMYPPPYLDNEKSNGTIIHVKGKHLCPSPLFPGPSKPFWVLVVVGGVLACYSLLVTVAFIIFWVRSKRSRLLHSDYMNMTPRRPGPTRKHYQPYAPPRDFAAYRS
anti-CD28 Fab (SEQ ID NOs: 696, 697), sequence (as listed by the source): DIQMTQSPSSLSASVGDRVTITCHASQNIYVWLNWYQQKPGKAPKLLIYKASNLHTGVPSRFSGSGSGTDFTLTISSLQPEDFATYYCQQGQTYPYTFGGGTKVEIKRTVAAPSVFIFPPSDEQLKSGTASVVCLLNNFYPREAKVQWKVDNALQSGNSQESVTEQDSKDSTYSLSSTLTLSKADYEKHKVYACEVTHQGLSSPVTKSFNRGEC
anti-CD28 Fab (SEQ ID NOs: 696, 697), sequence (as listed by the source): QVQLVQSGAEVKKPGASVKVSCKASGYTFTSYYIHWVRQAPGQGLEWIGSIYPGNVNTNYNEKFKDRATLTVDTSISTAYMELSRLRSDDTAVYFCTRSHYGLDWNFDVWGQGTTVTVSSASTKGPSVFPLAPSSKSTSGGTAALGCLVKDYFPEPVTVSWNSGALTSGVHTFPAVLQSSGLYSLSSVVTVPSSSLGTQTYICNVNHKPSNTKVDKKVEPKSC
PSMA Fab (SEQ ID NOs: 19, 20), sequence (as listed by the source): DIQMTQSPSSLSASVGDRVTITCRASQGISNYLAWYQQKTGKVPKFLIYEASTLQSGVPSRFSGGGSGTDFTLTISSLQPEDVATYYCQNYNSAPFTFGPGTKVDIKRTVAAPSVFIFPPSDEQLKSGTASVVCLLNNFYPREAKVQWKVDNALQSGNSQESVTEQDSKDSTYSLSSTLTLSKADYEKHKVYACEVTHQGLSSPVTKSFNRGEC
PSMA Fab (SEQ ID NOs: 19, 20), sequence (as listed by the source): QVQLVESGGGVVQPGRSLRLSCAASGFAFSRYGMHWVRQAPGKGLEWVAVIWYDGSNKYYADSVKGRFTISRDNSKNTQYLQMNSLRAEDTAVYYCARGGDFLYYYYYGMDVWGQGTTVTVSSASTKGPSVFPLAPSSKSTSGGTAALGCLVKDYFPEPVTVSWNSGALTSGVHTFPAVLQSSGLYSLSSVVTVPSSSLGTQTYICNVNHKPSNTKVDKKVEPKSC
PSMA Fab (SEQ ID NOs: 19, 20) binding to the PSMA antigen, sequence (Q04609 whole entry partner): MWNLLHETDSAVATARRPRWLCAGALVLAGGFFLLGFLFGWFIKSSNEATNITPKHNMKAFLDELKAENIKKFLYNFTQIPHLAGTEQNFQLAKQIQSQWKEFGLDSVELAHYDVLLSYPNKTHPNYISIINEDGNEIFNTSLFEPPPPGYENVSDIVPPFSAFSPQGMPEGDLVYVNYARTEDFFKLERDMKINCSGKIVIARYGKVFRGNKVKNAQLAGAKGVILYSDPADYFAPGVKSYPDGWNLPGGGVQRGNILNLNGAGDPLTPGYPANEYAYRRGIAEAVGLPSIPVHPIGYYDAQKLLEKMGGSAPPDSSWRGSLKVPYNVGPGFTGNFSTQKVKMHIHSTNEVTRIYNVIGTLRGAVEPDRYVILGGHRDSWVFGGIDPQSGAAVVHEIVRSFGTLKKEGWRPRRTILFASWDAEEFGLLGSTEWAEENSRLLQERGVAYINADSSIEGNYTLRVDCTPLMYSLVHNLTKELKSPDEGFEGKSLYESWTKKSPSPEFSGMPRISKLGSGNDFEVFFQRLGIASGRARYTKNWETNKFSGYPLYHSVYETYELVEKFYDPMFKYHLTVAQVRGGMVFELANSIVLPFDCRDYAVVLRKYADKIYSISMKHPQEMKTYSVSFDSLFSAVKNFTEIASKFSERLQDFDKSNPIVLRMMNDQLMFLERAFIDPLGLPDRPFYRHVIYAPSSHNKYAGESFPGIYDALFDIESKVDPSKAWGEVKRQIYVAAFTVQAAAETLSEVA

Off rate t1/2 [1]: <60 s
Sequence: QCTWNEKTWWMECE [Peptide-204]

IC50 ([2]; Table 29): > 100 µM
Sequence: SCAAGASYAWPYCA [Peptide-106]

Sequence: SCAAGASYAWPYCL [Peptide-92]
binding to the anti-CD28 Fab [3]: strong binding | EC50 ([3]; Table 24): 0.054 µM | EC50 ([3]; Table 25): 0.0189 µM | IC50 ([2]; Table 27): > 100 µM | EC50 [4]: > 1 µM

EC50 ([5]; Table 37): > 1 µM
Sequence: SCFSFARLEVVPCD [Peptide-159]

EC50 ([5]; Table 37): > 1 µM
Sequence: SCGWLRGEEFGWWC [Peptide-177]

EC50 ([5]; Table 38): > 3 µM
Sequence: SCGWLRGEEFGWWC [Peptide-190]
IC50 [6]: > 100 µM

EC50 ([5]; Table 37): > 1 µM
Sequence: SIPCIPRDWLCPIK [Peptide-163]

EC50 ([5]; Table 38): > 3 µM
Sequence: SIPCIPRDWLCPIK [Peptide-182]
IC50 [6]: > 100 µM

Off rate t1/2 [1]: <60 s
Sequence: SKLLCVPPWMCYHV [Peptide-194]

EC50 ([5]; Table 37): > 1 µM
Sequence: TCLRFADLAIIHCD [Peptide-160]

Sequence: WCWDYKLWVPMTCP [Peptide-85]
EC50 ([3]; Table 24): > 1 µM | EC50 [4]: > 1 µM

Sequence: WCWDYKLWVPTQCP [Peptide-81]
EC50 ([3]; Table 24): > 1 µM | EC50 [4]: > 1 µM

Sequence: WCWDYREWVPMTCP [Peptide-82]
EC50 ([3]; Table 24): > 1 µM | EC50 [4]: > 1 µM

Sequence: WCWYYREWVPMTCP [Peptide-88]
EC50 ([3]; Table 24): > 1 µM | EC50 [4]: > 1 µM

Sequence: WECLKYTEANACTY [Peptide-76]
EC50 ([3]; Table 24): > 1 µM | EC50 [4]: > 1 µM

Sequence: WICDKSGSIMLCRA [Peptide-91]
EC50 ([3]; Table 24): > 1 µM | EC50 [4]: > 1 µM

IC50 ([2]; Table 29): > 100 µM
Sequence: YCAGHAWQYANKCL [Peptide-113]

Sequence: YCAGHAWQYINKCL [Peptide-87]
binding to the anti-CD28 Fab [3]: strong binding | EC50 ([3]; Table 24): 0.049 µM | EC50 ([3]; Table 26): 0.0306 µM | Off rate t½ [7]: 42 s | kdis [7]: 0.0202 s⁻¹ | kon [7]: 10000 M⁻¹ s⁻¹ | EC50 [4]: 0.156 µM

Sequence: YCAGHSPINIGKCL [Peptide-84]
EC50 ([3]; Table 24): 0.337 µM | EC50 [4]: > 1 µM

Sequence: YCAGMSTIQLWLKC [Peptide-94]
EC50 ([3]; Table 24): > 1 µM | EC50 [4]: > 1 µM

EC50 ([3]; Table 26): 0.0071 µM | kdis [7]: 0.028 s⁻¹ | kon [7]: 33700 M⁻¹ s⁻¹
Sequence: YCEGHAPEYIAKCL [Peptide-121]

EC50 ([3]; Table 26): 0.0031 µM | kdis [7]: 0.0239 s⁻¹ | kon [7]: 25800 M⁻¹ s⁻¹
Sequence: YCEGHLPEYIEKCL [Peptide-120]

Off rate t½ [7]: 54 s | kdis [7]: 0.0115 s⁻¹
Sequence: YCEGHLPEYIQKCL [Peptide-134]

EC50 ([3]; Table 26): 0.0021 µM | Off rate t½ [7]: 54 s
Sequence: YCEGHLPEYIWKCL [Peptide-135]

EC50 ([3]; Table 26): 0.0017 µM | kdis [7]: 0.0118 s⁻¹
Sequence: YCEGHLPEYLAKCL [Peptide-127]

kdis [7]: 0.0191 s⁻¹
Sequence: YCEGHLPEYREKCL [Peptide-126]

EC50 ([3]; Table 26): 0.0032 µM | kdis [7]: 0.0138 s⁻¹
Sequence: YCEGHLPEYRNKCL [Peptide-132]

Binding EC50 ([5]; Table 37): high background
Sequence: YECHQGLFHRWCVN [Peptide-158]

EC50 ([5]; Table 38): > 3 µM
Sequence: YECHQGLFHRWCVN [Peptide-185]

Sequence: YWSCFQIPFTCFYF [Peptide-75]
EC50 ([3]; Table 24): > 1 µM | EC50 [4]: > 1 µM

Sequence: YWYCSPSIVRCVLV [Peptide-89]
EC50 ([3]; Table 24): > 1 µM | EC50 [4]: > 1 µM
